Test results reported in EP4796538A1, “NOVEL QUINOXALINE COMPOUNDS, MANUFACTURING METHOD THEREOF, AND USES THEREOF” (Gachon University of Industry-Academic Cooperation …, priority 2023, dated 2025).
Where two headings read alike, the source gives them in different places.

Columns and labels:
RET(G810R) = target: T1, RET(G810R) (Homo sapiens, UniProt P07949, G810R); experiment: Kinase panel inhibition, radiolabeled [γ-33P] ATP (Reaction Biology Corp); type: biochemical; conditions: for remaining activity at 0.1 µM: compound at 0.1 uM; for remaining activity at 0.1 µM / remaining activity at 1 µM: ATP 10 µM, read-out: % Enzyme Activity (relative to DMSO controls) G810R; for remaining activity at 1 µM: compound at 1 uM
T1 construct: purchased Reaction Biology Corp
Method: (§1) Using radiolabeled ATP ([γ-33P] ATP), the degree to which the substrate was replaced by a 33P-phosphorylated substrate was measured, and changes in kinase activity were determined from the measurement of the radiolabeled phosphorylated substrate.

RET(V804M) = target: T2, RET(V804M) (Homo sapiens, UniProt P07949, V804M); experiment: as above; type: biochemical; conditions: for remaining activity at 0.1 µM: compound at 0.1 uM; for remaining activity at 0.1 µM / remaining activity at 1 µM: ATP 10 µM, read-out: % Enzyme Activity (relative to DMSO controls) V804M; for remaining activity at 1 µM: compound at 1 uM
T2 construct: purchased Reaction Biology Corp
Method: as §1

RET(V804M)-KIF5B = target: T3, RET(V804M)-KIF5B (Homo sapiens, UniProt P07949, V804M); experiment: as above; type: biochemical; conditions: for remaining activity at 0.1 µM: compound at 0.1 uM, ATP 10 µM, read-out: % Enzyme Activity (relative to DMSO controls) RET (V804M )-KIF5B
T3 sequence (P07949 713-1114 V804M): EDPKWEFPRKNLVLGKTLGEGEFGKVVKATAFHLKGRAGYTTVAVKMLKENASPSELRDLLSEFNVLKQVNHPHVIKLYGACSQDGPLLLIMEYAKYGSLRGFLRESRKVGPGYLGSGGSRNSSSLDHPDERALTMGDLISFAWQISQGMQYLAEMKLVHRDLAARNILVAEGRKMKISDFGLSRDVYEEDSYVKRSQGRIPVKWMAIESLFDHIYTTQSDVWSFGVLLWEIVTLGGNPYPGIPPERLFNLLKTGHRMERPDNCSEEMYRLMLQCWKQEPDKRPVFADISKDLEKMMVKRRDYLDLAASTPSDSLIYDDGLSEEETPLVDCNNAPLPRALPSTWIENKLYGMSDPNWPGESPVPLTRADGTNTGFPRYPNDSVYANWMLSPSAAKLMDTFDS
T3 sequence (P33176 2-575 partner): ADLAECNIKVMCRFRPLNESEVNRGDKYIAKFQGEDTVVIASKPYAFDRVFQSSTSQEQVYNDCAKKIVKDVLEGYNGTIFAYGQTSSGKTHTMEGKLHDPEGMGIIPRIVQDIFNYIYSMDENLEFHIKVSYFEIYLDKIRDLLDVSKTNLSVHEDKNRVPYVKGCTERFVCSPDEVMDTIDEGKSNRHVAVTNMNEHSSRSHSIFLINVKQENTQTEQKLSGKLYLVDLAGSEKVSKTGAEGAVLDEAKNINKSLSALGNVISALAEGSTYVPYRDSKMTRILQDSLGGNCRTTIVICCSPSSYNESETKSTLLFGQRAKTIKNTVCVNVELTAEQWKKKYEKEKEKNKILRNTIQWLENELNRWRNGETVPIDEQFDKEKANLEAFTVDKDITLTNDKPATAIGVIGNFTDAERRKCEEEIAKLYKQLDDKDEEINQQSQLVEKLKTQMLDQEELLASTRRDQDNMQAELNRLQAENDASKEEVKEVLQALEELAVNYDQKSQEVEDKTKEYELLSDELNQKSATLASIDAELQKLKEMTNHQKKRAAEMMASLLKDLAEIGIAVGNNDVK
Method: as §1

RET-CCDC6 (PTC1) = target: T4, RET-CCDC6 (PTC1) (Homo sapiens, UniProt P07949); experiment: as above; type: biochemical; conditions: compound at 10 uM, ATP 1 µM
T4 construct: purchased Reaction Biology Corp
Method: as §1

RET (G810S/M918T) = target: T5, RET (G810S/M918T) (Homo sapiens, UniProt P07949, G810S/M918T); experiment: as above; type: biochemical; conditions: ATP 1 µM; for remaining activity at 10 µM: compound at 10 uM; for remaining activity at 30 µM: compound at 30uM
T5 construct: purchased Reaction Biology Corp
Method: as §1

A-549 = experiment: Cell proliferation inhibition, Cell Counting Kit-8, non-small cell lung cancer cell line; type: cell-based; conditions: A-549 cell line; 72 hours incubation; test concentration not given
RET = target: T6, RET (Homo sapiens, UniProt P07949); experiment: Kinase panel inhibition, radiolabeled [γ-33P] ATP (Reaction Biology Corp); type: biochemical; conditions: compound at 1 uM; ATP 10 µM; read-out: % Enzyme Activity (relative to DMSO controls) RET
T6 construct: purchased Reaction Biology Corp
Method: as §1

BaF3 KIF5B-RET (G810R) = experiment: Cell proliferation inhibition, Cell Counting Kit-8, Ba/F3 cell line; type: cell-based, rodent; conditions: Mus musculus, 72 hours incubation, read-out: Cell Viability of BaF3 Cell lines (IC50 in uM) KIF5B-RET (G810R)
Method: Each cell line was seeded in a 96-well plate at 1×10^4 cells/90 µL/well, and 10 µL/well of culture medium containing each example and intermediate compound or DMSO control at 9 concentrations (1 nM to 100 µM) prepared by 3-fold serial dilutions was added to achieve a final concentration of 0 to 100 µM, followed by incubation for 72 hours in a 37°C, 5% CO2 incubator. After 72 hours of incubation, the compound-treated plates were removed, and Cell Counting Kit-8 solution was added at 10 µL/well and mixed well.
As a control compound, selpercatinib, a known RET inhibitor, was treated to calculate the IC50 values.

[1] = Data 1, read-out: % Enzyme Activity (relative to DMSO controls) RET-CCDC6 (PTC1) Data 1
[2] = Data 2, read-out: % Enzyme Activity (relative to DMSO controls) RET-CCDC6 (PTC1) Data 2
[3] = Data 1, read-out: % Enzyme Activity (relative to DMSO controls) RET (G810S/M918T) Data 1
[4] = Data 2, read-out: % Enzyme Activity (relative to DMSO controls) RET (G810S/M918T) Data 2

T2 sequence (P07949 29-1114 V804M): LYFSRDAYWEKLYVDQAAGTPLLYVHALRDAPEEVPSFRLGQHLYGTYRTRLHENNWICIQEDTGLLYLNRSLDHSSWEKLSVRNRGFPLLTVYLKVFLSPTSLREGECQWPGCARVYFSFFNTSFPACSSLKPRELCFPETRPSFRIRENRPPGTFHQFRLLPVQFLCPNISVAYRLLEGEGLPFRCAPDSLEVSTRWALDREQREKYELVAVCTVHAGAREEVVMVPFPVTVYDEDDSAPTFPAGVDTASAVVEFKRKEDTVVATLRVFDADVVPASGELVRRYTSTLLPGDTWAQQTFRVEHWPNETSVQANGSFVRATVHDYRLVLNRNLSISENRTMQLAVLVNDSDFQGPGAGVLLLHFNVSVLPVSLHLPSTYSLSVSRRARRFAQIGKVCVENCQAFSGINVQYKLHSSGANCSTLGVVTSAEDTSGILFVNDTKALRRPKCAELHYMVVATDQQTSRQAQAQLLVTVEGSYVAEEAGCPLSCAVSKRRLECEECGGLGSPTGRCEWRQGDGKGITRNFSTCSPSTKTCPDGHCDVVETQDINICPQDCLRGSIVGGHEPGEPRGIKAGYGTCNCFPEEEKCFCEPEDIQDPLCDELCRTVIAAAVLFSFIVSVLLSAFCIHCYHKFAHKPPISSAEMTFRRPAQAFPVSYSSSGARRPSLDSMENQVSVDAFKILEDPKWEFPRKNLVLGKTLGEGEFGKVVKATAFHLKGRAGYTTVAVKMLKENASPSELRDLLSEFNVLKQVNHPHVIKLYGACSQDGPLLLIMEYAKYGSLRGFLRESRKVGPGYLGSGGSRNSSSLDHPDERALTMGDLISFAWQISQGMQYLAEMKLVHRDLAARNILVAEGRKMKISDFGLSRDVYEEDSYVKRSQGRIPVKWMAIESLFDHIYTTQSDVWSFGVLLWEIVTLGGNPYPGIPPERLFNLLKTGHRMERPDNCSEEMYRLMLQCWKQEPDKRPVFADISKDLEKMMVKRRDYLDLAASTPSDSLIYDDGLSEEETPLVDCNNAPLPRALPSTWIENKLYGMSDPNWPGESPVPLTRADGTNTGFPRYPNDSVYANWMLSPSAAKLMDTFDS
T1 sequence (P07949 29-1114 G810R): as the sequence (P07949 29-1114 V804M) above, with M776V, G782R counted along it
T5 sequence (P07949 29-1114 G810S/M918T): as the sequence (P07949 29-1114 V804M) above, with M776V, G782S, M890T counted along it
T4 sequence (P07949 whole entry, looked up): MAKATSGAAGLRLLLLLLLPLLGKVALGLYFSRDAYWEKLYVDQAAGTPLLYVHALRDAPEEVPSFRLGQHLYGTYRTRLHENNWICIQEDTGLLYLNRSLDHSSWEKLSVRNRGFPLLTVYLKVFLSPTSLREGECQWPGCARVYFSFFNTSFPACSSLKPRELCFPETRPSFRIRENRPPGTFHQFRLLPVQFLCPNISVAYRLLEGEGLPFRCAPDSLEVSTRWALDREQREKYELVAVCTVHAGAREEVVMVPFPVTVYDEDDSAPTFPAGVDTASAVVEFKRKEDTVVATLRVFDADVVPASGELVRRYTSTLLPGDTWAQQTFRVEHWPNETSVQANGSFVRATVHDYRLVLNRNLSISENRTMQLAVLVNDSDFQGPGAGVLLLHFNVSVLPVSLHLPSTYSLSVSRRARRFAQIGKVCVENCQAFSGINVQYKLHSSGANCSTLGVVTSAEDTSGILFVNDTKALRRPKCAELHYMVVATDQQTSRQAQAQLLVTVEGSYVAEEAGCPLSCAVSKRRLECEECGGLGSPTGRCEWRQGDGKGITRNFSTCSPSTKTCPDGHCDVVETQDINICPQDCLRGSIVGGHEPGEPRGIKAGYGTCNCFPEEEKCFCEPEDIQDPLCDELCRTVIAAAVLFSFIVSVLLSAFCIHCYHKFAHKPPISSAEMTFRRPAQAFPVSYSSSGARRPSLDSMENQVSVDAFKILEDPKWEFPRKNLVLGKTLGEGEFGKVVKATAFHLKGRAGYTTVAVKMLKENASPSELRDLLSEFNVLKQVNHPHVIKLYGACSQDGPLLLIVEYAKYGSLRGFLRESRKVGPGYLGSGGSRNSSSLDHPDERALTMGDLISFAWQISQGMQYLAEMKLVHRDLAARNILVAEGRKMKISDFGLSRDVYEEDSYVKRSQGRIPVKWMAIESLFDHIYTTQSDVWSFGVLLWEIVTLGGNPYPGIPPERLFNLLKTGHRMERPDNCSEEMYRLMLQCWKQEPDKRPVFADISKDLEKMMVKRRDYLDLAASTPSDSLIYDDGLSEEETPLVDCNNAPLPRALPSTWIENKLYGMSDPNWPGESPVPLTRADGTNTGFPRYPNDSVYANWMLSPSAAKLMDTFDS
T6 sequence (P07949 29-1114): as the sequence (P07949 29-1114 V804M) above, with M776V counted along it

Row | SMILES | remaining activity at 10 µM (RET-CCDC6 (PTC1); [1]) [%] | remaining activity at 10 µM (RET-CCDC6 (PTC1); [2]) [%] | remaining activity at 10 µM (RET (G810S/M918T); [3]) [%] | remaining activity at 10 µM (RET (G810S/M918T); [4]) [%] | Cell Proliferation (% of control) (A-549) [%] | remaining activity at 1 µM (RET) [%] | remaining activity at 1 µM (RET(G810R)) [%] | remaining activity at 1 µM (RET(V804M)) [%] | remaining activity at 30 µM (RET (G810S/M918T); [3]) [%] | remaining activity at 30 µM (RET (G810S/M918T); [4]) [%] | IC50 (BaF3 KIF5B-RET (G810R)) [µM] | other results
1 | O=C(Nc1cc(-c2ccc(N3CC(Oc4cccc(F)c4)C3)nc2)c2nccnc2c1)c1ccco1 [Example 8, N-(8-(6-(3-(3-fluorophenoxy)azetidin-1-yl)pyridin-3-yl)quinoxalin-6-yl)furan-2-carboxamide] | 2.53 | 1.8 | 13.6 | 12.9 | 78.35 |  |  |  |  |  |  | remaining activity at 0.1 µM (RET(G810R)): 96.7%; remaining activity at 0.1 µM (RET(V804M)): 46%; remaining activity at 0.1 µM (RET(V804M)-KIF5B): 65.1%
2 | Nc1cc(-c2ccc(N3CC[C@H](NC(=O)c4ccccc4F)C3)nc2)c2nccnc2c1 [Example 10, (S)-N-(1-(5-(7-aminoquinoxalin-5-yl)pyridin-2-yl)pyrrolidin-3-yl)-2-fluorobenzamide] | 1.55 | 0.99 | -0.09 | -0.6 | 32.59 |  |  |  |  |  |  | remaining activity at 0.1 µM (RET(G810R)): 59.9%; IC50 (RET(G810R); read-out: Enzymatic inhibitory activity (IC50) nM G810R): 44.7 nM; remaining activity at 0.1 µM (RET(V804M)): 2.27%; IC50 (RET(V804M); read-out: Enzymatic inhibitory activity (IC50) nM V804M): 0.5 nM; IC50 (RET(V804M)-KIF5B): 0.00226 µM; remaining activity at 0.1 µM (RET(V804M)-KIF5B): 5.5%
3 | CCS(=O)(=O)N1CCN(c2ccc(-c3cc(N)cc4nccnc34)cn2)CC1 [Example 22, 8-(6-(4-(ethylsulfonyl)piperazin-1-yl)pyridin-3-yl)quinoxalin-6-amine] | 2.9 | 3.03 | 15.7 | 15.1 | 68.42 |  |  |  |  |  |  | 
4 | Nc1cc(-c2ccc(N3CCN(c4ccccn4)CC3)nc2)c2nccnc2c1 [Example 23, 8-(6-(4-(pyridin-2-yl)piperazin-1-yl)pyridin-3-yl)quinoxalin-6-amine] | 1.92 | 2.29 | 9.23 | 9.45 | 78.36 |  |  |  |  |  |  | 
5 | Nc1cc(-c2ccc(N3CCN(Cc4ccc(Br)cc4)CC3)nc2)c2nccnc2c1 [Example 24, 8-(6-(4-(4-bromobenzyl)piperazin-1-yl)pyridin-3-yl)quinoxalin-6-amine] | 1.51 | 1.27 | 2.24 | 2.38 | 15.35 |  |  |  |  |  |  | 
6 | Nc1cc(-c2ccc(N3CCC(N4CCOCC4)CC3)nc2)c2nccnc2c1 [Example 25, 8-(6-(4-morpholinopiperidin-1-yl)pyridin-3-yl)quinoxalin-6-amine] | 18.3 | 20.4 | 46.8 | 45.2 | 75.52 |  |  |  |  |  |  | 
7 | CCNc1cc(-c2ccc(N3CCN(Cc4ccc(Br)cc4)CC3)nc2)c2nccnc2c1 [Example 26, 8-(6-(4-(4-bromobenzyl)piperazin-1-yl)pyridin-3-yl)-N-ethylquinoxalin-6-amine] | 0.94 | 1.32 | 1.23 | 1.3 | 79.51 |  |  |  |  |  |  | 
8 | O=[N+]([O-])c1cc(-c2ccc(N3CC(Oc4cccc(F)c4)C3)nc2)c2nccnc2c1 [Example 27, 5-(6-(3-(3-fluorophenoxy)azetidin-1-yl)pyridin-3-yl)-7-nitroquinoxaline] |  |  |  |  | 94.57 | 67.2 | 101 | 62.8 | 59.9 | 58.1 | > 10 | 
9 | CCN(CC)c1cc(-c2ccc(N3CC(Oc4cccc(F)c4)C3)nc2)c2nccnc2c1 [Example 28, N,N-diethyl-8-(6-(3-(3-fluorophenoxy)azetidin-1-yl)pyridin-3-yl)quinoxalin-6-amine] |  |  |  |  | 94.81 | 28.3 | 105 | 16.5 | 4.19 | 4.35 | > 10 | 
10 | Nc1cc(-c2cnc(N3CC(Oc4cccc(F)c4)C3)nc2)c2nccnc2c1 [Example 29, 8-(2-(3-(3-fluorophenoxy)azetidin-1-yl)pyrimidin-5-yl)quinoxalin-6-amine] | 1.22 | 1.07 | 0.28 | 0.11 | 12.87 |  |  |  |  |  |  | remaining activity at 0.1 µM (RET(G810R)): 76.3%
11 | Nc1cc(-c2cnc(N3CC[C@H](NC(=O)c4ccccc4F)C3)nc2)c2nccnc2c1 [Example 30, (S)-N-(1-(5-(7-aminoquinoxalin-5-yl)pyrimidin-2-yl)pyrrolidin-3-yl)-2-fluorobenzamide] | 1.19 | 1.2 | 0.97 | 0.98 | 42.94 |  |  |  |  |  |  | 
12 | CCNc1cc(-c2ccc(F)nc2)c2nccnc2c1 [Intermediate Compound 6, N-ethyl-8-(6-fluoropyridin-3-yl)quinoxalin-6-amine] |  |  |  |  |  | 57 | 97.9 | 59.3 | 18.2 | 17.2 | 4.44 | 
13 | O=C(Nc1cc(Br)c2nccnc2c1)c1ccco1 [Intermediate Compound 11, N-(8-bromoquinoxalin-6-yl)furan-2-carboxamide] |  |  |  |  |  | 93.7 | 97.6 | 87.1 | 74.7 | 73 | > 10 | 
14 | O=C(Nc1cc(-c2ccc(F)nc2)c2nccnc2c1)c1ccco1 [Intermediate Compound 13, N-(8-(6-fluoropyridin-3-yl)quinoxalin-6-yl)furan-2-carboxamide] |  |  |  |  |  | 95.7 | 102 | 104 | 92.6 | 89.7 | > 10 | 
15 | O=[N+]([O-])c1cc(-c2ccc(F)nc2)c2nccnc2c1 [Intermediate Compound 15, 5-(6-fluoropyridin-3-yl)-7-nitroquinoxaline] |  |  |  |  |  | 93.5 | 99.5 | 94.9 | 97.4 | 99.4 |  | 
16 | CCNc1cc(Br)c2nccnc2c1 [Intermediate Compound 18, 8-Bromo-N-ethylquinoxalin-6-amine] |  |  |  |  |  | 71.1 | 104 | 68.3 | 10.3 | 9.57 | 0.73 | 
17 | COc1ccc(CN2C3CC2CN(c2ccc(-c4cc(OCC(C)(C)O)cn5ncc(C#N)c45)cn2)C3)cn1 [Selpercatinib, selpercatinib, reference compound] |  |  |  |  |  |  |  |  |  |  | 1.41 | 
